The source of these data is PMC9296036, “A peptide interfering with the dimerization of oncogenic KITENIN protein and its stability suppresses colorectal tumour progression” (Clinical and Translational Medicine, 2022).

Series [1] can be described thus: Detection of KDIP and truncated forms in tumour and liver tissue by LC-MS/MS (MRM) after intravenous injection. In kind it is in vivo, mouse. The following applies: tissues collected 20 min after fifth intravenous injection of KDIP 5 mg/kg, below the limit of detection. On the procedure:
At 20 min after fifth intravenous injection of KDIP, tumour and liver tissues were collected, immediately frozen using liquid nitrogen and ground with a pestle and mortar. One part of resultant powder by weight was homogenized with two parts of lysis buffer containing 8‐M urea, 25‐mM Tris–HCl (pH 8.5) by volume and was placed in Eppendorf tubes. This lysate was sonicated three times for 2 s with 2‐s intervals of rest at 20% amplitude on ice. Insoluble debris was removed by obtaining supernatant after centrifugation at 14 000 g, 4°C for 15 min.
Peptide extraction from serum or tissue lysate was performed by solid‐phase extraction using Oasis HLB Cartridge 1‐cm^3 (30 mg). HLB cartridges were conditioned using ACN (1 ml) and 50% ACN, .5% FA (1 ml), followed by equilibration using .5% FA (2 ml). A volume of 10‐μl serum and 20 μl of tissue lysate were added by .5% FA to be 1 ml and were loaded on equilibrated cartridges. Cartridges were washed with .5% FA (3 ml), and then peptide was eluted by 50% ACN, .5% FA (500 μl). Eluates were vacuum‐dried using Speed‐Vac and were stored at −80°C until use. Dried samples were reconstituted in .5% FA 50 and 5 μl of sample was loaded on column for LC–MS/MS analysis.
Each sample was analysed using an Agilent 1100 Series high‐performance liquid chromatography pump (Agilent Technologies, USA) coupled to an LTQ linear ion trap mass spectrometer (Thermo Finnigan, USA). Separation of peptide was carried out on a homemade C18‐fused silica column (100‐μm internal diameter) with nano‐electrospray ionization interface. […] Peptide was quantified by multiple reaction monitoring (MRM) in positive ion mode, with a spray voltage of 2.3 kV. […] Furthermore, truncated forms ([…], […]) of KDIP that were detected during stability test were also analysed by following transitions: 468.5 → 404.8 (b16 ^+5), 468.5 → 444.85 (b18 ^+5), 468.5 → 505.7 (b16 ^+4), 468.5 → 551.35 (b18 + H2O^+4), 468.5 → 555.7 (b18 ^+4), 528.45 → 448.85 (b14 ^+4), 528.45 → 499.0 (b16 ^+4), 528.45 → 598.15 (b14 ^+3), 528.45 → 659.25 (b16 + H2O^+3) and 528.45 → 664.95 (b16 ^+3). […]

Series [2] deals with the molecule itself. Briefly: SDS-PAGE in the reducing/denaturing condition and Western blot; non-transfected HCT116 and Caco2 cells, regular SDS-PAGE gel, dimer-sized band.
Series [3] deals with the molecule itself. Briefly: native gel or EMSA; lysates of Caco2 cells transfected with KITENIN-V5, with or without KDIP, on a native SDS-PAGE gel in the non-reducing/non-denaturing condition; immunoblot with anti-KITENIN antibody.

Turning to “ARVRRRGPRRWRLVSDEAV [19‐mer, N-truncated form of KDIP found after incubation with mouse serum]”, the “detection in regressed tumour tissues or liver by mass spectrometry” value in series [1] was “not detected”.

On to “VRRRGPRRWRLVSDEAV [17‐mer, N-truncated form of KDIP found after incubation with mouse serum]”, for which the “detection in regressed tumour tissues or liver by mass spectrometry” value in series [1] is “not detected”.

B1: endogenous KITENIN (natural protein, UniProt Q8TAA9 1-524, looked up)
chain: MDTESTYSGYSYYSSHSKKSHRQGERTRERHKSPRNKDGRGSEKSVTIQPPTGEPLLGNDSTRTEEVQDDNWGETTTAITGTSEHSISQEDIARISKDMEDSVGLDCKRYLGLTVASFLGLLVFLTPIAFILLPPILWRDELEPCGTICEGLFISMAFKLLILLIGTWALFFRKRRADMPRVFVFRALLLVLIFLFVVSYWLFYGVRILDSRDRNYQGIVQYAVSLVDALLFIHYLAIVLLELRQLQPMFTLQVVRSTDGESRFYSLGHLSIQRAALVVLENYYKDFTIYNPNLLTASKFRAAKHMAGLKVYNVDGPSNNATGQSRAMIAAAARRRDSSHNELYYEEAEHERRVKKRKARLVVAVEEAFIHIQRLQAEEQQKAPGEVMDPREAAQAIFPSMARALQKYLRITRQQNYHSMESILQHLAFCITNGMTPKAFLERYLSAGPTLQYDKDRWLSTQWRLVSDEAVTNGLRDGIVFVLKCLDFSLVVNVKKIPFIILSEEFIDPKSHKFVLRLQSETSV
notes: KITENIN (Vangl1), endogenous; also called endogenous KITENIN dimer; source: endogenous, HEK293T, HCT116 or Caco2 lysate
With B1, in series [2], the “stoichiometry N” value came out at 2.

B2: V5-tagged KITENIN (natural protein, UniProt Q8TAA9 1-524, looked up)
chain: B1 chain
notes: KITENIN (Vangl1), wild type; also called KITENIN-V5; WT-KITENIN
On to B2, for which the “stoichiometry N” value in series [3] came out at 2.
